Reference: ChEMBL document CHEMBL4145553, “Design, synthesis, and biological evaluation of novel amide and hydrazide based thioether analogs targeting Histone deacteylase (HDAC) enzymes” (Eur J Med Chem, 2018)
Activity calls are given as the source filed them. The rule behind the calls is not given here.

Tests used:
[1] = test system: SNB-19; test: Growth inhibition of human SNB19 cells incubated for 48 hrs by sulforhodamine B assay; assay type: functional; settings: SNB-19, 48 h
[2] = test system: T47D; test: Growth inhibition of human T47D cells assessed as cell growth at 10^-7 M incubated for 48 hrs by sulforhodamine B assay relative to control; assay type: functional; settings: read-out: Activity
[3] = test system: MDA-MB-435; test: Induction of apoptosis in human MDA-MB-435 cells assessed as increase in caspase-9 expression by qRT-PCR method; assay type: functional, cell-based
[4] = test system: NCI-H460; test: Growth inhibition of human NCI-H460 cells assessed as cell growth at 10^-7 M incubated for 48 hrs by sulforhodamine B assay relative to control; assay type: functional; settings: NCI-H460, 48 h, read-out: Activity
[5] = test system: UO-31; test: Growth inhibition of human UO31 cells assessed as cell growth at 10^-7 M incubated for 48 hrs by sulforhodamine B assay relative to control; assay type: functional; settings: UO-31, 48 h, read-out: Activity
[6] = test system: KM12; test: Growth inhibition of human KM12 cells assessed as cell growth at 10^-4 M incubated for 48 hrs by sulforhodamine B assay relative to control; assay type: functional; settings: KM12, 48 h, read-out: Activity
[7] = test system: T47D; test: Growth inhibition of human T47D cells assessed as cell growth at 10^-6 M incubated for 48 hrs by sulforhodamine B assay relative to control; assay type: functional; settings: read-out: Activity
[8] = test system: MDA-MB-468; test: Growth inhibition of human MDA-MB-468 cells assessed as cell growth at 10^-5 M incubated for 48 hrs by sulforhodamine B assay relative to control; assay type: functional; settings: MDA-MB-468, 48 h, read-out: Activity
[9] = test system: SN12C; test: Growth inhibition of human SN12C cells assessed as cell growth at 10^-8 M incubated for 48 hrs by sulforhodamine B assay relative to control; assay type: functional; settings: read-out: Activity
[10] = test system: RPMI-8226; test: Growth inhibition of human RPMI8226 cells assessed as cell growth at 10^-5 M incubated for 48 hrs by sulforhodamine B assay relative to control; assay type: functional; settings: RPMI-8226, 48 h, read-out: Activity
[11] = test system: 786-0; test: Growth inhibition of human 786-0 cells assessed as cell growth at 10^-8 M incubated for 48 hrs by sulforhodamine B assay relative to control; assay type: functional; settings: 786-0, 48 h, read-out: Activity
[12] = test system: U-251; test: Growth inhibition of human U251 cells assessed as cell growth at 10^-6 M incubated for 48 hrs by sulforhodamine B assay relative to control; assay type: functional; settings: U-251, 48 h, read-out: Activity
[13] = test system: CAKI-1; test: Growth inhibition of human Caki1 cells assessed as cell growth at 10^-4 M incubated for 48 hrs by sulforhodamine B assay relative to control; assay type: functional; settings: CAKI-1, 48 h, read-out: Activity
[14] = test system: NCI-H522; test: Growth inhibition of human NCI-H522 cells assessed as cell growth at 10^-6 M incubated for 48 hrs by sulforhodamine B assay relative to control; assay type: functional; settings: NCI-H522, 48 h, read-out: Activity
[15] = test system: OVCAR-8; test: Growth inhibition of human OVCAR8 cells assessed as cell growth at 10^-4 M incubated for 48 hrs by sulforhodamine B assay relative to control; assay type: functional; settings: OVCAR-8, 48 h, read-out: Activity
[16] = test system: A549; test: Growth inhibition of human A549/ATCC cells assessed as cell growth at 10^-8 M incubated for 48 hrs by sulforhodamine B assay relative to control; assay type: functional; settings: A549, 48 h, read-out: Activity
[17] = test system: MDA-MB-435; test: Induction of apoptosis in human MDA-MB-435 cells assessed as live cells by propidium iodide/Annexin V staining based flow cytometry (reference value: 97.4%); assay type: functional
[18] = test system: EKVX; test: Growth inhibition of human EKVX cells assessed as cell growth at 10^-5 M incubated for 48 hrs by sulforhodamine B assay relative to control; assay type: functional; settings: read-out: Activity
[19] = test system: NCI-H322M; test: Growth inhibition of human NCI-H322M cells assessed as cell growth at 10^-5 M incubated for 48 hrs by sulforhodamine B assay relative to control; assay type: functional; settings: read-out: Activity
[20] = test system: SF-539; test: Growth inhibition of human SF539 cells assessed as cell growth at 10^-8 M incubated for 48 hrs by sulforhodamine B assay relative to control; assay type: functional; settings: SF-539, 48 h, read-out: Activity
[21] = test system: SNB-75; test: Growth inhibition of human SNB75 cells assessed as cell growth at 10^-7 M incubated for 48 hrs by sulforhodamine B assay relative to control; assay type: functional; settings: SNB-75, 48 h, read-out: Activity
[22] = test system: HCT-15; test: Growth inhibition of human HCT15 cells assessed as cell growth at 10^-4 M incubated for 48 hrs by sulforhodamine B assay relative to control; assay type: functional; settings: HCT-15, 48 h, read-out: Activity
[23] = test system: CAKI-1; test: Growth inhibition of human Caki1 cells assessed as cell growth at 10^-7 M incubated for 48 hrs by sulforhodamine B assay relative to control; assay type: functional; settings: CAKI-1, 48 h, read-out: Activity
[24] = test system: MCF7; test: Growth inhibition of human MCF7 cells incubated for 48 hrs by sulforhodamine B assay; assay type: functional; settings: MCF7, 48 h
[25] = test system: HCC 2998; test: Growth inhibition of human HCC2998 cells incubated for 48 hrs by sulforhodamine B assay; assay type: functional; settings: HCC 2998, 48 h
[26] = test system: RXF 393; test: Growth inhibition of human RXF393 cells assessed as cell growth at 10^-7 M incubated for 48 hrs by sulforhodamine B assay relative to control; assay type: functional; settings: RXF 393, 48 h, read-out: Activity
[27] = test system: SN12C; test: Growth inhibition of human SN12C cells assessed as cell growth at 10^-7 M incubated for 48 hrs by sulforhodamine B assay relative to control; assay type: functional; settings: read-out: Activity
[28] = test system: SN12C; test: Growth inhibition of human SN12C cells incubated for 48 hrs by sulforhodamine B assay; assay type: functional
[29] = test system: KM12; test: Growth inhibition of human KM12 cells assessed as cell growth at 10^-5 M incubated for 48 hrs by sulforhodamine B assay relative to control; assay type: functional; settings: KM12, 48 h, read-out: Activity
[30] = test system: HOP-62; test: Growth inhibition of human HOP62 cells assessed as cell growth at 10^-4 M incubated for 48 hrs by sulforhodamine B assay relative to control; assay type: functional; settings: HOP-62, 48 h, read-out: Activity
[31] = test system: UO-31; test: Growth inhibition of human UO31 cells assessed as cell growth at 10^-5 M incubated for 48 hrs by sulforhodamine B assay relative to control; assay type: functional; settings: UO-31, 48 h, read-out: Activity
[32] = read-out: LC50 (the source's name)
[33] = read-out: pLC50 (the source's name) (converted)

SMILES: CCS/C(Nc1ccccc1)=C(\C#N)C(=O)N/N=C\c1ccc(Cl)cc1Cl
- GI50 ([1]; read-out: GI50): 4.17 µM
- CC50 [1, 32]: > 100 µM
- TGI ([1]; read-out: TGI): > 100 µM
- GI50 ([1]; read-out: pGI50 (converted)): 4.17 µM
- CC50 [1, 33]: > 100 µM
- TGI ([1]; read-out: pTGI): > 100 µM
- growth at 0.1 µM [2]: 95%
- Activity [3]: Active
- growth at 0.1 µM [4]: 98%
- growth at 0.1 µM [5]: 90%
- growth at 100 µM [6]: 22%
- growth at 1 µM [7]: 89%
- growth at 10 µM [8]: -3%
- growth at 0.01 µM [9]: 97%
- growth at 10 µM [10]: 18%
- growth at 0.01 µM [11]: 95%
- growth at 1 µM [12]: 94%
- growth at 100 µM [13]: 13%
- growth at 1 µM [14]: 68%
- growth at 100 µM [15]: 20%
- growth at 0.01 µM [16]: 97%
- Activity [17]: 91.29%
- growth at 10 µM [18]: 35%
- growth at 10 µM [19]: 42%
- growth at 0.01 µM [20]: 105%
- growth at 0.1 µM [21]: 78%
- growth at 100 µM [22]: 11%
- growth at 0.1 µM [23]: 84%
- GI50 ([24]; read-out: GI50): 2.99 µM
- CC50 [24, 32]: > 100 µM
- TGI ([24]; read-out: TGI): > 100 µM
- GI50 ([24]; read-out: pGI50 (converted)): 3.02 µM
- CC50 [24, 33]: > 100 µM
- TGI ([24]; read-out: pTGI): > 100 µM
- GI50 ([25]; read-out: GI50): 5.47 µM
- CC50 [25, 32]: > 100 µM
- TGI ([25]; read-out: TGI): > 100 µM
- GI50 ([25]; read-out: pGI50 (converted)): 5.5 µM
- CC50 [25, 33]: > 100 µM
- TGI ([25]; read-out: pTGI): > 100 µM
- growth at 0.1 µM [26]: 87%
- growth at 0.1 µM [27]: 92%
- GI50 ([28]; read-out: GI50): 6.92 µM
- CC50 [28, 32]: > 100 µM
- TGI ([28]; read-out: TGI): > 100 µM
- GI50 ([28]; read-out: pGI50 (converted)): 6.92 µM
- CC50 [28, 33]: > 100 µM
- TGI ([28]; read-out: pTGI): > 100 µM
- growth at 10 µM [29]: 24%
- growth at 100 µM [30]: 8%
- growth at 10 µM [31]: 43%
